The numbers were not newly measured in US6767895B2 (priority 2000, dated 2004), which cites them from elsewhere.

The conditions of this data set: in vivo; cited from earlier work.

Consider contulakin-G, for which the “potency in inhibiting pain relative to neurotensin” value is “significantly more potent than neurotensin”.
